The subject of data set [1] is LN-308 glioma cells. The data set can be described thus: Cytotoxicity, LDH release and trypan blue dye exclusion. It counts as cell-based, human. Particulars: up to 1 μM for 72 h. On the procedure:
(§1) The glioma cells and CCL64 cells were maintained in DMEM supplemented with 2 mM L-glutamine (Gibco Life Technologies, Paisley, UK), 10% FCS (Biochrom KG, Berlin, Germany) and penicillin (100 IU/ml)/streptomycin (100 μg/ml) (Gibco). Growth and viability of the glioma cells was examined by crystal violet, LDH release (Roche, Mannheim, Germany) and trypan blue dye exclusion assays. To assess clonogenicity, 500 SMA-560 cells were seeded into 6 well plates (9.4 cm^2). After formation of visible cell formations, colonies>20 cells were counted.
For orientation: LDH in the medium is a marker of cell lysis.

Data set [2] has as its system SMA-560 glioma cells. The description is as above. In kind it is cell-based, murine. As to conditions: up to 1 μM for 72 h. On the procedure:
as §1

The nature of data set [3]: Solubility in drinking water. It counts as physicochemical.
For data set [4], the system named is glioma cells. The data set can be described thus: Viability of glioma cells in response to serum deprivation. It counts as cell-based. Particulars: data not shown. On the procedure:
as §1

Data set [5] relates to SMA-560 intracranial experimental glioma. The data set can be described thus: Syngeneic SMA-560 intracranial glioma in VM/Dk mice. It counts as in vivo. As to the method: FIG. 4. […] A. VM/Dk mice received an intracranial injection of 5×10^3 SMA-560 cells. […] B. The animals were treated as in A, but were sacrificed on day 10 to obtain splenocytes. IFN-γ release at 24 h was assessed by Elispot. Data are expressed as cytokine-producing cells per 10^6 effector cells. C. The splenocytes were stimulated with IL-2 for 10 days to generate LAK cells.
VM/Dk mice were purchased from the TSE Research Center (Berkshire, UK). Mice of 6-12 weeks of age were used in all experiments. The experiments were performed according to the German animal protection law. Groups of 7-8 mice were anesthesized before all intracranial procedures and placed in a stereotaxic fixation device (Stoelting, Wood Dale, Ill.). A burr hole was drilled in the skull 2 mm lateral to the bregma. The needle of a Hamilton syringe (Hamilton, Darmstadt, Germany) was introduced to a depth of 3 mm. […] The mice were observed daily and, in the survival experiments, sacrified when developing neurological symptoms, or sacrificed as indicated in the other experiments.

`Fc1ccc(Cl)cc1-c1nc(Nc2ccncc2)c2nccnc2n1` [Compound No. 79]: the cytotoxic effects result in data set [1] and in data set [2] was “neiter LDH release nor trypan blue dye exclusion assays revealed cytotoxic effects” each time. Also, the solubility result in data set [3] is “relatively poor solubility”. The “viability in response to serum deprivation” value in data set [4] is given as “did not modulate”. The “development of neurological symptoms” value in data set [5] (1 mg/ml in drinking water from day 3, data not shown) is given as “delayed”. Moreover, the “survival rate at 30 days” value in data set [5] (1 mg/ml in drinking water from day 3, control 0%) was 29%. This molecule also had a median survival in data set [5] (1 mg/ml in drinking water from day 3, vehicle 18) of 23 days. This molecule came in with a mean survival in data set [5] (1 mg/ml in drinking water from day 3, vehicle 18.6±2.1, p=0.004) of 25.1 ± 6.5 days. Moreover, the dose-limiting toxicity result in data set [5] (drinking water 1 mg/ml) was “No dose-limiting toxicity has been reached”.

The record behind these values is patent US20050245508A1, “Treatment of malignant gliomas with TGF-beta inhibitors” (SCIOS, Inc., priority 2003, published 2005).
